# Measurements as given in PubChem BioAssay AID328 (DTP/NCI, 2004).
# “And” between values parts separate entries of the source, which are not always exact repeats. Identical values can stand only once. Toxic doses and inconclusive results are not listed.
# System: BDF1 mice, P388 leukemia ip, median survival T/C
# Test: NCI In Vivo Anticancer Drug Screen. Data for tumor model P388 Leukemia (intraperitoneal) in B6D2F1 (BDF1) mice
# Settings: endpoint: median survival time, higher = longer survival
# Procedure, shortened: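 Compound-treated tumour-bearing mice were compared with vehicle-treated controls. Survival was recorded, and the value is the treated-group measurement divided by the control-group measurement (T/C).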
compound,measurement,setting,value
O=c1[nH]cc(F)c(=O)[nH]1,T/C,"dose: 5.0 mg/kg/injection, schedule: Q03HX024 (ip), vehicle: saline",210 % of control
same,T/C,"dose: 7.5 mg/kg/injection, schedule: Q01DX009 (ip), vehicle: saline",166 % of control and 179 % of control and 184 % of control
same,T/C,"dose: 7.5 mg/kg/injection, schedule: Q03HX024 (ip), vehicle: saline",219 % of control
same,T/C,"dose: 8.0 mg/kg/injection, schedule: Q01DX005 (ip), vehicle: saline",163 % of control
same,T/C,"dose: 9.4 mg/kg/injection, schedule: Q04DX003 (ip), vehicle: saline",120 % of control
same,T/C,"dose: 10.0 mg/kg/injection, schedule: Q01DX010 (ip), vehicle: acetone",95 % of control
same,T/C,"dose: 10.0 mg/kg/injection, schedule: Q03HX024 (ip), vehicle: saline",233 % of control
same,T/C,"dose: 11.0 mg/kg/injection, schedule: Q01DX009 (ip), vehicle: saline",211 % of control
same,T/C,"dose: 13.0 mg/kg/injection, schedule: Q01DX009 (ip), vehicle: saline",122 % of control
same,T/C,"dose: 13.2 mg/kg/injection, schedule: Q01DX009 (ip), vehicle: saline",250 % of control
same,T/C,"dose: 13.3 mg/kg/injection, schedule: Q01DX009 (ip), vehicle: Klucel (hydroxypropylcellulose) (HPC)",150 % of control
same,T/C,"dose: 13.3 mg/kg/injection, schedule: Q01DX009 (ip), vehicle: saline sonified",181 % of control
same,T/C,"dose: 14.0 mg/kg/injection, schedule: Q01DX009 (ip), vehicle: saline",169 % of control
same,T/C,"dose: 15.0 mg/kg/injection, schedule: Q03HX024 (ip), vehicle: saline",254 % of control
same,T/C,"dose: 16.0 mg/kg/injection, schedule: Q01DX005 (ip), vehicle: saline",170 % of control
same,T/C,"dose: 16.0 mg/kg/injection, schedule: Q01DX009 (ip), vehicle: saline",228 % of control and 169 % of control
same,T/C,"dose: 20.0 mg/kg/injection, schedule: Q01DX005 (ip), vehicle: water",205 % of control
same,T/C,"dose: 20.0 mg/kg/injection, schedule: Q01DX009 (ip), vehicle: Klucel (hydroxypropylcellulose) (HPC)",100 % of control
same,T/C,"dose: 20.0 mg/kg/injection, schedule: Q01DX009 (ip), vehicle: saline sonified",113 % of control
same,T/C,"dose: 20.0 mg/kg/injection, schedule: Q01DX010 (ip), vehicle: acetone",213 % of control
same,T/C,"dose: 20.0 mg/kg/injection, schedule: Q04DX003 (ip), vehicle: saline",166 % of control
same,T/C,"dose: 22.5 mg/kg/injection, schedule: Q03HX024 (ip), vehicle: saline",112 % of control
same,T/C,"dose: 23.0 mg/kg/injection, schedule: Q01DX009 (ip), vehicle: saline",205 % of control
same,T/C,"dose: 24.0 mg/kg/injection, schedule: Q01DX009 (ip), vehicle: saline",243 % of control
same,T/C,"dose: 25.0 mg/kg/injection, schedule: Q04DX003 (ip), vehicle: water",150 % of control
same,T/C,"dose: 26.0 mg/kg/injection, schedule: Q04DX003 (ip), vehicle: saline",96 % of control and 111 % of control
same,T/C,"dose: 27.0 mg/kg/injection, schedule: Q01DX009 (ip), vehicle: Klucel (hydroxypropylcellulose) (HPC)",166 % of control
same,T/C,"dose: 27.0 mg/kg/injection, schedule: Q01DX009 (ip), vehicle: saline sonified",181 % of control
same,T/C,"dose: 27.0 mg/kg/injection, schedule: Q04DX003 (ip), vehicle: saline",154 % of control
same,T/C,"dose: 32.0 mg/kg/injection, schedule: Q01DX005 (ip), vehicle: saline",185 % of control
same,T/C,"dose: 36.0 mg/kg/injection, schedule: Q04DX003 (ip), vehicle: saline",153 % of control and 165 % of control
same,T/C,"dose: 39.0 mg/kg/injection, schedule: Q01DX009 (ip), vehicle: saline",87 % of control
same,T/C,"dose: 40.0 mg/kg/injection, schedule: Q01DX005 (ip), vehicle: water",185 % of control
same,T/C,"dose: 40.0 mg/kg/injection, schedule: Q01DX010 (ip), vehicle: acetone",100 % of control
same,T/C,"dose: 50.0 mg/kg/injection, schedule: Q01DX001 (ip), vehicle: saline",153 % of control
same,T/C,"dose: 50.0 mg/kg/injection, schedule: Q04DX003 (ip), vehicle: saline",152 % of control and 158 % of control
same,T/C,"dose: 50.0 mg/kg/injection, schedule: Q04DX003 (ip), vehicle: water",170 % of control
same,T/C,"dose: 65.0 mg/kg/injection, schedule: Q04DX003 (ip), vehicle: saline",98 % of control
same,T/C,"dose: 66.0 mg/kg/injection, schedule: Q01DX001 (ip), vehicle: saline",100 % of control and 111 % of control
same,T/C,"dose: 75.0 mg/kg/injection, schedule: Q01DX001 (ip), vehicle: water",150 % of control
same,T/C,"dose: 75.0 mg/kg/injection, schedule: Q04DX003 (ip), vehicle: saline",163 % of control and 196 % of control
same,T/C,"dose: 80.0 mg/kg/injection, schedule: Q01DX010 (ip), vehicle: saline",90 % of control
same,T/C,"dose: 88.0 mg/kg/injection, schedule: Q01DX001 (ip), vehicle: saline",99 % of control and 108 % of control
same,T/C,"dose: 100.0 mg/kg/injection, schedule: Q04DX003 (ip), vehicle: water",190 % of control
same,T/C,"dose: 108.0 mg/kg/injection, schedule: Q04DX003 (ip), vehicle: saline",98 % of control
same,T/C,"dose: 160.0 mg/kg/injection, schedule: Q01DX001 (ip), vehicle: saline",104 % of control and 108 % of control and 117 % of control
same,T/C,"dose: 175.0 mg/kg/injection, schedule: Q01DX001 (ip), vehicle: saline",150 % of control
same,T/C,"dose: 180.0 mg/kg/injection, schedule: Q04DX003 (ip), vehicle: saline",100 % of control
same,T/C,"dose: 200.0 mg/kg/injection, schedule: Q04DX003 (ip), vehicle: water",100 % of control
same,T/C,"dose: 225.0 mg/kg/injection, schedule: Q01DX001 (ip), vehicle: saline",117 % of control
same,T/C,"dose: 240.0 mg/kg/injection, schedule: Q01DX001 (ip), vehicle: saline",105 % of control and 106 % of control
same,T/C,"dose: 250.0 mg/kg/injection, schedule: Q01DX001 (ip), vehicle: saline",90 % of control
same,T/C,"dose: 360.0 mg/kg/injection, schedule: Q01DX001 (ip), vehicle: saline",109 % of control and 111 % of control
same,T/C,"dose: 400.0 mg/kg/injection, schedule: Q01DX001 (ip), vehicle: saline",100 % of control
